The assay has as its target T1, recombinant Vps34 (Homo sapiens, UniProt Q8NEB9).
T1 construct: purchased Invitrogen PV5126
Put plainly: Phosphorylation of phosphatidylinositol (PI) by Vps34 in vitro, ADP detected by TR-FRET (HTRF Transcreener ADP). Format: biochemical. Conditions: 10 μM ATP, 55 μg/ml PI, approximately 3 nM Vps34, 1 hour at ambient temperature; absolute IC50, mean of two independent experiments; read-out: IC50 activity range. (In TR-FRET formats the signal depends on donor and acceptor labels being close together.)
T1 sequence (Q8NEB9 whole entry): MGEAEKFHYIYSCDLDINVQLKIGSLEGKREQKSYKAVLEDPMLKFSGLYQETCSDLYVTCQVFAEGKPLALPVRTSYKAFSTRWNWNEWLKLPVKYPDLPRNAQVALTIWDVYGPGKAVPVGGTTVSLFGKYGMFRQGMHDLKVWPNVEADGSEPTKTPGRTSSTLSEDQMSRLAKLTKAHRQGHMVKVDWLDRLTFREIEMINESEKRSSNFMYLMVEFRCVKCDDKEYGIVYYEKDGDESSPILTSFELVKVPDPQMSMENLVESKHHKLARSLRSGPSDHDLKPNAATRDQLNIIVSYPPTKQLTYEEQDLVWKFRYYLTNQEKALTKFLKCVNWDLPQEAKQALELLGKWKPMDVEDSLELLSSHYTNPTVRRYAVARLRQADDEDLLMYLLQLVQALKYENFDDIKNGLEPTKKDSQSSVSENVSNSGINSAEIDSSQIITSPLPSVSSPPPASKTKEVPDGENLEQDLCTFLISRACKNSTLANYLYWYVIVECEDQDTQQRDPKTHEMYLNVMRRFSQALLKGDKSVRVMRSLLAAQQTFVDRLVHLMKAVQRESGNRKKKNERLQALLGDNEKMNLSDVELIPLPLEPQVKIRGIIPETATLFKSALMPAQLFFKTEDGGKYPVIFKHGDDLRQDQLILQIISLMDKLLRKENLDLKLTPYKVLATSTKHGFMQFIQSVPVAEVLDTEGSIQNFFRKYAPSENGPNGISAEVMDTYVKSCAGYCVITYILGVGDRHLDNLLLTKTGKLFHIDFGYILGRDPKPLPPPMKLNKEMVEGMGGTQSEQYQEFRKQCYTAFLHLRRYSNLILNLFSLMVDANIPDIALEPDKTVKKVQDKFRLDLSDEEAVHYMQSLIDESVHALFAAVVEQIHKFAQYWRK
`C[C@@H]1COC[C@@H](C)N1c1cc(=O)n2c(n1)N(Cc1ccon1)[C@H](C(F)(F)F)CC2` [Example 313, (S)-2-((3R,5R)-3,5-Dimethylmorpholin-4-yl)-9-isoxazol-3-yl-methyl-8-trifluoromethyl-6,7,8,9-tetrahydropyrimido-[1,2-a]pyrimidin-4-one]: the IC50 – broadly, the concentration that inhibits the measured activity by half – is under 10 nM. `C[C@@H]1COCCN1c1nc2n(c(=O)c1F)CC[C@@H](C(F)(F)F)N2CC(=O)N1CCCO1` [Example 314, (S)-3-Fluoro-9-(2-isoxazolidin-2-yl-2-oxoethyl)-2-((R)-3-methylmorpholin-4-yl)-8-trifluoromethyl-6,7,8,9-tetrahydro-pyrimido[1,2-a]-pyrimidin-4-one]: the IC50 is under 10 nM.

As to `C[C@@H]1COCCN1c1cc(=O)n2c(n1)N(CCO)[C@H](C(F)(F)F)CC2` [Example 315, (S)-9-(2-Hydroxy-ethyl)-2-((R)-3-methyl-morpholin-4-yl)-8-trifluoromethyl-6,7,8,9-tetrahydro-pyrimido[1,2-a]-pyrimidin-4-one], the half-maximal inhibitory concentration (IC50) is under 10 nM. The same measure for `C[C@@H]1COCCN1c1nc2n(c(=O)c1F)CC[C@@H](C(F)(F)F)N2CC(=O)N1CCCCO1` [Example 317, (S)-3-Fluoro-2-((R)-3-methylmorpholin-4-yl)-9-(2-[1,2]oxazinan-2-yl-2-oxoethyl)-8-trifluoromethyl-6,7,8,9-tetrahydropyrimido-[1,2-a]pyrimidin-4-one]: under 10 nM; for `C[C@@H]1COCCN1c1cc(=O)n2c(n1)N(CC(=O)N1CCCCO1)[C@H](C(F)(F)F)CC2` [Example 318, (S)-2-((R)-3-Methyl-morpholin-4-yl)-9-(2-[1,2]oxazinan-2-yl-2-oxoethyl)-8-trifluoromethyl-6,7,8,9-tetrahydropyrimido-[1,2-a]pyrimidin-4-one]: under 10 nM. The same measure for `C[C@@H]1COCCN1c1cc(=O)n2c(n1)N(CC(=O)N1CCCO1)[C@H](C(F)(F)F)CC2` [Example 319, (S)-9-(2-Isoxazolidin-2-yl-2-oxoethyl)-2-((R)-3-methyl-morpholin-4-yl)-8-trifluoromethyl-6,7,8,9-tetrahydropyrimido-[1,2-a]pyrimidin-4-one]: under 10 nM; for `CC1CN(c2cc(=O)n3c(n2)N(CC(=O)C(C)C)[C@H](C(F)(F)F)CC3)CCO1` (stereo partly drawn) [Example 320, (S)-2-(2-Methyl-morpholin-4-yl)-9-(3-methyl-2-oxobutyl)-8-trifluoromethyl-6,7,8,9-tetrahydropyrimido-[1,2-a]pyrimidin-4-one]: 10 to 100 nM; for `C[C@H]1COCCN1c1nc2n(c(=O)c1F)CC[C@@H](C(F)(F)F)N2CC(=O)C1CC1` [Example 321, (S)-9-(2-Cyclopropyl-2-oxoethyl)-3-fluoro-2-((S)-3-methyl-morpholin-4-yl)-8-trifluoromethyl-6,7,8,9-tetrahydropyrimido-[1,2-a]pyrimidin-4-one]: 10 to 100 nM. The same measure for `CC(=O)CN1c2nc(N3CCOC[C@H]3C)cc(=O)n2CC[C@@]1(C)C(F)(F)F` [Example 327, (S)-8-Methyl-2-((R)-3-methylmorpholin-4-yl)-9-(2-oxopropyl)-8-trifluoromethyl-6,7,8,9-tetrahydropyrimido-[1,2-a]pyrimidin-4-one]: under 10 nM; for `C[C@@H]1COCCN1c1cc(=O)n2c(n1)N(CC(=O)N1CC3(CCO3)C1)[C@H](C(F)(F)F)CC2` [Example 330, (S)-2-((R)-3-Methyl-morpholin-4-yl)-9-[2-(1-oxa-6-aza-spiro[3.3]hept-6-yl)-2-oxoethyl]-8-trifluoromethyl-6,7,8,9-tetrahydropyrimido-[1,2-a]pyrimidin-4-one]: 10 to 100 nM; for `C[C@@H]1COCCN1c1nc2n(c(=O)c1F)CC[C@@H](C(F)(F)F)N2CC(=O)N1CC2(CCO2)C1` [Example 333, (S)-3-Fluoro-2-((R)-3-methylmorpholin-4-yl)-9-[2-(1-oxa-6-aza-spiro[3.3]hept-6-yl)-2-oxoethyl]-8-trifluoromethyl-6,7,8,9-tetrahydropyrimido-[1,2-a]pyrimidin-4-one]: under 10 nM.

The values are drawn from US11739100B2, “2,3-dihydro-1h-imidazo{1,2-a}pyrimidin-5-one and this 1,2,3,4-tetrahydropyrimido{1,2-a}pyrimidin-6-one derivatives comprising a substituted morpholine, preparation thereof and pharmaceutical use thereof” (SANOFI, priority 2012, dated 2023).
